For assay [1], the system named is norepinephrine (NE) uptake. Kind of assay: Inhibition of norepinephrine uptake in vitro: synaptosomal uptake of 14C-l-norepinephrine in rat cortical synaptosomes. In kind it is biochemical, rat (male Sprague-Dawley). Conditions: 100 nM 14C-NE, 37° C., 5 min. As to the method:
(§1) This general procedure is set forth by Wong et al., in Drug Development Research 6:397-403 (1985).
(§2) Male Sprague-Dawley rats (110-150 g) from Harlan Industries (Cumberland, IN) were fed a Purina Chow ad libitum for at least 3 days before being used in the studies. Rats were killed by decapitation. Whole brains were removed and dissected. Cerebral cortex was homogenized in 9 volumes of a medium containing 0.32 M sucrose and 10 mM glucose. Crude synaptosomal preparations were isolated after differential centrifugation at 1,000 g for 10 min. and 17,000 g for 28 min. The final pellets were suspended in the same medium and kept in ice until use within the same day.
(§3) Synaptosomal uptake of ^3 H-serotonin(^3 H-5hydroxytryptamine, ^3 H-5HT) and ^14 C-l-norepinephrine (^14 C-NE) was determined as follows. Cortical synaptosomes (equivalent to 1 mg of protein) were incubated at 37° C. for 5 min in 1 ml of Krebs-bicarbonate medium containing also 10 mM glucose, 0.1 mM iproniazid, 1 mM ascorbic acid, 0.17 mM EDTA, 50 nM ^3 H-5HT and 100 nM ^14 C-NE The reaction mixture was immediately diluted with 2 ml of ice-chilled Krebs-bicarbonate buffer and filtered under vacuum with a cell harvester (Brandel, Gaithersburg, MD). Filters were rinsed twice with approximately 5 ml of ice-chilled 0.9% saline and were transferred to a counting vial containing 10 ml of scintillation fluid (PCS, Amersham, Arlington Heights, IL). Radioactivity was measured by a liquid scintillation spectrophotometer. Accumulation of ^3 H-5HT and ^14 C-NE at 4° C. represented the background and was subtracted from all samples.

A further assay relates to serotonin (5HT) uptake. The experiment in a line: Inhibition of 5HT uptake in vitro: synaptosomal uptake of 3H-serotonin in rat cortical synaptosomes. In kind it is biochemical, rat (male Sprague-Dawley). Conditions: 50 nM 3H-5HT, 37° C., 5 min. On the procedure: as §1, §2, §3

Counter-ions that a name gives are not always drawn.

Broadly, the IC50 is the concentration that gives 50% inhibition. On to `CN(C)CCC(Oc1cccc2ccccc12)c1ccco1` (centres unmarked) [Example 30, N,N-Dimethyl-3-(1-naphthalenyloxy)-3-(2furanyl)propanamine oxalate], for which the half-maximal inhibitory concentration (IC50) came out at 30 nM in assay [1] and 11 nM in the assay with serotonin (5HT) uptake.

In the case of `CNCCC(Oc1cccc2ccccc12)c1ccco1` (centres unmarked) [Example 31, N-Methyl-3-(1-naphthalenyloxy)-3-(2-furanyl)propanamine oxalate], the IC50 in assay [1] worked out at 22.7 nM; with serotonin (5HT) uptake it was 20 nM.

On to `CN(C)CCC(Oc1cccc2ccccc12)c1nccs1` (centres unmarked) [Example 32, N,N-Dimethyl-3-(1-naphthalenyloxy)-3-(2thiazolyl)propanamine oxalate], for which the concentration for half-maximal inhibition (IC50) in assay [1] stood at 510 nM; in the assay with serotonin (5HT) uptake, 50 nM.

In the case of `CN(C)CCC(Oc1cccc2ccccc12)C1CCCCC1` (centres unmarked) [Example 33, N,N-Dimethyl-3-(1-naphthalenyloxy)-3-(cyclohexyl)propanamine oxalate], in assay [1], the “percent inhibition at 1000 nM, NE (number in parentheses)” value was found to be 47%. In the assay with serotonin (5HT) uptake, the concentration for half-maximal inhibition (IC50) stood at 210 nM.

In the case of `CNCCC(Oc1ccc(C(F)(F)F)cc1)C1CCCCC1` (centres unmarked) [Example 34, N-Methyl-3-[4-(trifluoromethyl)phenoxy]-3(cyclohexyl)propanamine oxalate], the 50% inhibitory concentration (IC50) amounted to 285 nM in assay [1] and 79 nM in the assay on serotonin (5HT) uptake.

In the case of `CN(C)CCC(Oc1ccc(C(F)(F)F)cc1)C1CCCCC1` (centres unmarked) [Example 35, N,N-Dimethyl-3-[4-(trifluoromethyl)phenoxy]-3-(cyclohexyl)propanamine oxalate], the “percent inhibition at 1000 nM, NE (number in parentheses)” value in assay [1] amounted to 21%. For the same compound, the IC50 with serotonin (5HT) uptake came to 260 nM.

Consider `CN(C)CCC(Oc1cccc2ccccc12)c1cccnc1` (centres unmarked) [Example 37, N,N-Dimethyl-3-(1-naphthalenyloxy)-3-(3-pyridyl)propanamine oxalate], for which the IC50 (in assay [1]; in the assay on serotonin (5HT) uptake) was 315 nM each time.

For the origin of these results see patent US5023269A, “3-aryloxy-3-substituted propanamines” (Eli Lilly and Company, priority 1990, dated 1991).
